45 compounds from patent US11623924B2, “Modulators of alpha-1 antitrypsin” (Vertex Pharmaceuticals Incorporated, priority 2018, dated 2023) can be followed below.

As a reminder, the EC50 is the concentration at which the effect is half-maximal.

The target in the experiment is T1, NL20 human bronchial epithelial cells expressing human Z-AAT (Homo sapiens, UniProt P01009, E366K).
T1 construct: expressed in transfected cells; host or cells: NL20 human bronchial epithelial cells (NL20-SI line, doxycycline added)
T1 sequence (P01009 25-418 E366K): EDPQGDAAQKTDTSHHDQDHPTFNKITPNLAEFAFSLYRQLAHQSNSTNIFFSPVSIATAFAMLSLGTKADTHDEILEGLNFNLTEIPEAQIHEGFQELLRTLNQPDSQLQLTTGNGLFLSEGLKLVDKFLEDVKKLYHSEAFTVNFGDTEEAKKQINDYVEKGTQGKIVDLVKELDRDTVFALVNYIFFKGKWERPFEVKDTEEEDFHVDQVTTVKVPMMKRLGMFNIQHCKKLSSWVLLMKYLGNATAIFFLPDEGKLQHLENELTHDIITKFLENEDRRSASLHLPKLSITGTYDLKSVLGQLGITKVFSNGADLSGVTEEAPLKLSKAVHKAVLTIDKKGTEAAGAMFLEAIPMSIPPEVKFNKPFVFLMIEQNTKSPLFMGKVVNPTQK
Description: AAT Function Assay (MSD Assay NL20-SI Cell Line). The class given is cell-based. The note with it: functionally active AAT (AAT-hNE complex) in supernatant of NL20 cells expressing human Z-AAT; read-out: NL20 Func. (EC50). A digest of the protocol:
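NL20 cells expressing Z-AAT, seeded 16,000 cells/well, received compound with doxycycline (0.1 μM final) and were incubated overnight at 37° C. Supernatants, diluted 45-fold in total, reacted with excess human neutrophil elastase; AAT-elastase complex captured on anti-AAT plates, detected with Sulfo-tagged anti-elastase by MSD electrochemiluminescence, and quantified against M-AAT standards (0.156-320 ng/mL).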
In the case of `CC(C)c1c(CCC(=O)O)c2c(F)c3[nH]ncc3cc2n1-c1ccc(F)cc1` [Compound 53, 3-[8-fluoro-5-(4-fluorophenyl)-6-isopropyl-1H-pyrrolo[2,3-f]indazol-7-yl]propanoic Acid], the concentration giving a half-maximal response (EC50) is below 1.16 µM.

For the compound `Cc1cc(-n2c(C(C)C)c(CCC(=O)O)c3cc4[nH]nc(C)c4cc32)ccc1F` [Compound 54, 3-[5-(4-fluoro-3-methyl-phenyl)-6-isopropyl-3-methyl-1H-pyrrolo[2,3-f]indazol-7-yl]propanoic Acid], the concentration for a half-maximal effect (EC50) is above 3 µM.

With `Fc1ccc(-n2c(C3CCOCC3)cc3cc4[nH]ncc4cc32)cc1` [Compound 60, 5-(4-fluorophenyl)-6-tetrahydropyran-4-yl-1H-pyrrolo[2,3-f]indazole], the EC50 is above 3 µM.

Regarding `N#Cc1c(C2CCOCC2)n(-c2ccc(F)cc2)c2cc3cn[nH]c3cc12` [Compound 61, 5-(4-fluorophenyl)-6-tetrahydropyran-4-yl-1H-pyrrolo[2,3-f]indazole-7-carbonitrile], the half-maximal effective concentration (EC50) is above 3 µM.

`CS(=O)(=O)c1c(C2CCOCC2)n(-c2ccc(F)cc2)c2cc3cn[nH]c3cc12` [Compound 62, 5-(4-fluorophenyl)-7-methylsulfonyl-6-tetrahydropyran-4-yl-1H-pyrrolo[2,3-f]indazole]: the EC50 is above 3 µM.

Turning to `Fc1ccc(-n2c(C3CCOCC3)c(Cl)c3cc4[nH]ncc4cc32)cc1` [Compound 63, 7-chloro-5-(4-fluorophenyl)-6-tetrahydropyran-4-yl-1H-pyrrolo[2,3-f]indazole], the EC50 lay in the range of 1.16 to 3 µM.

In the case of `O=C(O)CCc1c(C2CCOCC2)n(-c2ccc(F)c(F)c2)c2cc3cn[nH]c3cc12` [Compound 64, 3-[5-(3,4-difluorophenyl)-6-tetrahydropyran-4-yl-1H-pyrrolo[2,3-f]indazol-7-yl]propanoic Acid], the concentration for a half-maximal effect (EC50) is above 3 µM.

As for `O=C(O)[C@H]1C[C@@H](c2c(C3CCOCC3)n(-c3ccc(F)c(F)c3)c3cc4cn[nH]c4cc32)C1` [Compound 65], the concentration giving a half-maximal response (EC50) is above 3 µM.

As to `O=C(O)[C@H]1C[C@H](c2c(C3CCOCC3)n(-c3ccc(F)c(F)c3)c3cc4cn[nH]c4cc32)C1` [Compound 66], the concentration for a half-maximal effect (EC50) was 1.16 to 3 µM.

Consider `O=C(O)[C@H]1CC[C@H](c2c(C3CCOCC3)n(-c3ccc(F)c(F)c3)c3cc4cn[nH]c4cc32)CC1` [Compound 75, (1r,4r)-4-(5-(3,4-difluorophenyl)-6-(tetrahydro-2H-pyran-4-yl)-1,5-dihydropyrrolo[2,3-f]indazol-7-yl)cyclohexane-1-carboxylic Acid], for which the EC50 was below 1.16 µM.

`O=C(O)CCc1c(C2CCOCC2)n(-c2ccc(F)c(Cl)c2)c2cc3cn[nH]c3cc12` [Compound 82]: the half-maximal effective concentration (EC50) was above 3 µM.

As to `O=C(O)[C@H]1CC[C@H](Cc2c(C3CCOCC3)n(-c3ccc(F)c(Cl)c3)c3cc4cn[nH]c4cc23)CC1` [Compound 84], the EC50 lay within 1.16 to 3 µM.

As for `Cc1cc(-n2c(C3CCOCC3)c(CCC(=O)O)c3cc4[nH]ncc4cc32)ccc1F` [Compound 86], the EC50 was above 3 µM.

For the compound `Cc1cc(-n2c(C3CCOCC3)c(CC3(C(=O)O)CC3)c3cc4[nH]ncc4cc32)ccc1F` [Compound 87], the EC50 is 1.16 to 3 µM.

For `Cc1cc(-n2c(C3CCOCC3)c(CCCC(=O)O)c3cc4[nH]ncc4cc32)ccc1F` [Compound 88], the EC50 was 1.16 to 3 µM.

As to `Cc1cc(-n2c(C3CCOCC3)c([C@H]3C[C@@H](C(=O)O)C3)c3cc4[nH]ncc4cc32)ccc1F` [Compound 99], the concentration giving a half-maximal response (EC50) was above 3 µM.

Regarding `Cc1cc(-n2c(C3CCOCC3)c([C@H]3C[C@H](C(=O)O)C3)c3cc4[nH]ncc4cc32)ccc1F` [Compound 100], the concentration giving a half-maximal response (EC50) lay within 1.16 to 3 µM.

With `Cc1cc(-n2c(C3CCOCC3)c(CC34CC(C(=O)O)(C3)C4)c3cc4[nH]ncc4cc32)ccc1F` [Compound 103], the EC50 is above 3 µM.

Take `O=C(O)CCc1c(C2CCOCC2)n(-c2ccc(F)cc2)c2cc3cn[nH]c3cc12` [Compound 107]: the EC50 is above 3 µM.

As to `O=C(O)C1(Cc2c(C3CCOCC3)n(-c3ccc(F)cc3)c3cc4cn[nH]c4cc23)CC1` [Compound 111], the EC50 fell in the range of 1.16 to 3 µM.

Consider `O=C(O)[C@H]1C[C@@H](c2c(C3CCOCC3)n(-c3ccc(F)cc3)c3cc4cn[nH]c4cc32)C1` [Compound 112], for which the concentration for a half-maximal effect (EC50) was above 3 µM.

Take `O=C(O)[C@H]1C[C@H](c2c(C3CCOCC3)n(-c3ccc(F)cc3)c3cc4cn[nH]c4cc32)C1` [Compound 113]: the concentration for a half-maximal effect (EC50) was in the range of 1.16 to 3 µM.

With `O=C(O)[C@H]1C[C@@H](Cc2c(C3CCOCC3)n(-c3ccc(F)cc3)c3cc4cn[nH]c4cc23)C1` [Compound 117], the half-maximal effective concentration (EC50) was in the range of 1.16 to 3 µM.

For `O=C(O)[C@H]1C[C@H](Cc2c(C3CCOCC3)n(-c3ccc(F)cc3)c3cc4cn[nH]c4cc23)C1` [Compound 118], the half-maximal effective concentration (EC50) is above 3 µM.

For `O=C(O)[C@H]1CC[C@H](Cc2c(C3CCOCC3)n(-c3ccc(F)cc3)c3cc4cn[nH]c4cc23)CC1` [Compound 119], the 50% effective concentration (EC50) lay within 1.16 to 3 µM.

With `O=C(O)[C@H]1CC[C@H](c2c(C3CCOCC3)n(-c3ccc(F)cc3)c3cc4cn[nH]c4cc32)CC1` [Compound 120], the EC50 was below 1.16 µM.

In the case of `O=C(O)C1CC2(C1)CC(c1c(C3CCOCC3)n(-c3ccccc3)c3cc4cn[nH]c4cc13)C2` (stereo not drawn) [Compound 123, 6-(5-phenyl-6-tetrahydropyran-4-yl-1H-pyrrolo[2,3-f]indazol-7-yl)spiro[3.3]heptane-2-carboxylic Acid], the 50% effective concentration (EC50) was in the range of 1.16 to 3 µM.

Take `Cc1cc(F)ccc1-n1c(C2CCOCC2)c(CC2(C(=O)O)CC2)c2cc3[nH]ncc3cc21` [Compound 124, 1-[[5-(4-fluoro-2-methyl-phenyl)-6-tetrahydropyran-4-yl-1H-pyrrolo[2,3-f]indazol-7-yl]methyl]cyclopropanecarboxylic Acid]: the concentration giving a half-maximal response (EC50) lay within 1.16 to 3 µM.

`Cc1cc(-n2c(C3CCOCC3)c(CCC(=O)O)c3cc4[nH]nc(C)c4cc32)ccc1F` [Compound 125, 3-[5-(4-fluoro-3-methyl-phenyl)-3-methyl-6-tetrahydropyran-4-yl-1H-pyrrolo[2,3-f]indazol-7-yl]propanoic Acid]: the EC50 was above 3 µM.

Take `O=C(O)C1CC2(C1)CC(c1c(C3CCOCC3)n(-c3ccc(F)c(F)c3)c3cc4c(Cl)n[nH]c4cc13)C2` (stereo not drawn) [Compound 130, 6-[3-chloro-5-(3,4-difluorophenyl)-6-tetrahydropyran-4-yl-1H-pyrrolo[2,3-f]indazol-7-yl]spiro[3.3]heptane-2-carboxylic Acid]: the 50% effective concentration (EC50) is below 1.16 µM.

For `Cc1c2[nH]ncc2cc2c1c(C1CC3(CC(C(=O)O)C3)C1)c(C1CCOCC1)n2-c1ccc(F)c(F)c1` (stereo not drawn) [Compound 131, 6-[5-(3,4-difluorophenyl)-8-methyl-6-tetrahydropyran-4-yl-1H-pyrrolo[2,3-f]indazol-7-yl]spiro[3.3]heptane-2-carboxylic acid], the EC50 was below 1.16 µM.

Regarding `Cc1c2[nH]ncc2cc2c1c(C1=CC3(C1)CC(C(=O)O)C3)c(C1CCOCC1)n2-c1ccc(F)c(F)c1` (stereo not drawn) [Compound 132, 2-[5-(3,4-difluorophenyl)-8-methyl-6-tetrahydropyran-4-yl-1H-pyrrolo[2,3-f]indazol-7-yl]spiro[3.3]hept-2-ene-6-carboxylic Acid], the EC50 was below 1.16 µM.

On to `N#Cc1c2[nH]ncc2cc2c1c(C1CC3(CC(C(=O)O)C3)C1)c(C1CCOCC1)n2-c1ccc(F)c(F)c1` (stereo not drawn) [Compound 133, 6-[8-cyano-5-(3,4-difluorophenyl)-6-tetrahydropyran-4-yl-1H-pyrrolo[2,3-f]indazol-7-yl]spiro[3.3]heptane-2-carboxylic acid], for which the concentration for a half-maximal effect (EC50) is below 1.16 µM.

Consider `O=C(O)C1CC2(C1)CC(c1c(C3CCOCC3)n(-c3ccc(F)c(F)c3)c3cc4cn[nH]c4c(Br)c13)C2` (stereo not drawn) [Compound 134, 6-[8-bromo-5-(3,4-difluorophenyl)-6-tetrahydropyran-4-yl-1H-pyrrolo[2,3-f]indazol-7-yl]spiro[3.3]heptane-2-carboxylic Acid], for which the EC50 is below 1.16 µM.

On to `Cc1cc(-n2c(C3(C)COC3)cc3cc4[nH]ncc4cc32)ccc1F` [Compound 138, 5-(4-fluoro-3-methyl-phenyl)-6-(3-methyloxetan-3-yl)-1H-pyrrolo[2,3-f]indazole], for which the concentration giving a half-maximal response (EC50) was above 3 µM.

For `Cc1cc(-n2c(C3(C)COC3)c(S(C)(=O)=O)c3cc4[nH]ncc4cc32)ccc1F` [Compound 139, 5-(4-fluoro-3-methyl-phenyl)-6-(3-methyloxetan-3-yl)-7-methylsulfonyl-1H-pyrrolo[2,3-f]indazole], the half-maximal effective concentration (EC50) was above 3 µM.

For the compound `CC(C)(C)c1c(C#N)c2cc3[nH]ncc3cc2n1-c1ccc(F)cc1` [Compound 143, 6-tert-butyl-5-(4-fluorophenyl)-1H-pyrrolo[2,3-f]indazole-7-carbonitrile], the EC50 was above 3 µM.

Regarding `Cn1cc(CCCc2c(C3CCOCC3)n(-c3ccc(F)cc3)c3cc4cn[nH]c4cc23)cn1` [Compound 144], the EC50 was below 1.16 µM.

For `Fc1ccc(-n2c(C3CCOCC3)c(CC3CCOCC3)c3cc4[nH]ncc4cc32)cc1` [Compound 145], the concentration for a half-maximal effect (EC50) was below 1.16 µM.

Consider `N#CCCc1c(C2CCOCC2)n(-c2ccc(F)cc2)c2cc3cn[nH]c3cc12` [Compound 146], for which the EC50 was 1.16 to 3 µM.

Take `O=S1(=O)CCC(Cc2c(C3CCOCC3)n(-c3ccc(F)cc3)c3cc4cn[nH]c4cc23)CC1` [Compound 147]: the EC50 is 1.16 to 3 µM.

In the case of `N#CCCCc1c(C2CCOCC2)n(-c2ccc(F)cc2)c2cc3cn[nH]c3cc12` [Compound 148], the half-maximal effective concentration (EC50) fell in the range of 1.16 to 3 µM.

Consider `COCCc1c(C2CCOCC2)n(-c2ccc(F)cc2)c2cc3cn[nH]c3cc12` [Compound 149], for which the EC50 was 1.16 to 3 µM.

Take `O=S1(=O)CCCN1CCCc1c(C2CCOCC2)n(-c2ccc(F)cc2)c2cc3cn[nH]c3cc12` [Compound 150]: the EC50 fell in the range of 1.16 to 3 µM.

Take `CS(=O)(=O)CCc1c(C2CCOCC2)n(-c2ccc(F)cc2)c2cc3cn[nH]c3cc12` [Compound 151]: the concentration giving a half-maximal response (EC50) fell in the range of 1.16 to 3 µM.
